One block for each compound: values may come before it. Activity calls are given as the source filed them.
Columns and labels:
SUMO E1/E2 = SUMO E1/E2 (Homo sapiens, UniProt P63279+Q9UBE0+Q9UBT2); assay: SAR analysis of SUMOylation using HTRF in an in-Vitro dose response assay. [Related pubchem assays (depositor defined):AID2006, AID2011, AID2018, AID2069, AID2658]; assay type: functional
[1] = biological target: Kappa-type opioid receptor (Homo sapiens, UniProt P41145); assay: SAR analysis of small molecule agonists of the kappa opioid receptor via a luminescent beta-arrestin assay - Set 3. [Related pubchem assays (depositor defined):AID1777, AID1785, AID1786, AID1966, AID2133, AID2136, AID2284, AID2500]; assay type: functional
Chain of Kappa-type opioid receptor (P41145 whole entry): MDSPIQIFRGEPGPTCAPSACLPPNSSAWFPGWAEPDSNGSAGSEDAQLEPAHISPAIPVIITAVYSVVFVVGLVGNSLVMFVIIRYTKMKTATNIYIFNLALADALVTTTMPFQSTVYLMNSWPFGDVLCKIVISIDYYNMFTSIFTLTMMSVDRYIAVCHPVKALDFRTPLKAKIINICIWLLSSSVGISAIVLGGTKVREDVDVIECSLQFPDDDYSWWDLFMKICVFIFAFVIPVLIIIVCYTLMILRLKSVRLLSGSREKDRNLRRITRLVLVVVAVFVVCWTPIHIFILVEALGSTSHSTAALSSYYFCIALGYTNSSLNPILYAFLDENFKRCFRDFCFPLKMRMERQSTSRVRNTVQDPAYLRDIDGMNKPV

[2] = biological target: T1, Rac GTPase-activating protein 1 (Homo sapiens, UniProt Q9H0H5); assay: MgcRacGAP GTPase-activating activity inhibitors, confirmation, biochemical, ADP Hunter fluorescence, primary and confirmatory (AID 624330); assay type: functional
T1 sequence (Q9H0H5 whole entry): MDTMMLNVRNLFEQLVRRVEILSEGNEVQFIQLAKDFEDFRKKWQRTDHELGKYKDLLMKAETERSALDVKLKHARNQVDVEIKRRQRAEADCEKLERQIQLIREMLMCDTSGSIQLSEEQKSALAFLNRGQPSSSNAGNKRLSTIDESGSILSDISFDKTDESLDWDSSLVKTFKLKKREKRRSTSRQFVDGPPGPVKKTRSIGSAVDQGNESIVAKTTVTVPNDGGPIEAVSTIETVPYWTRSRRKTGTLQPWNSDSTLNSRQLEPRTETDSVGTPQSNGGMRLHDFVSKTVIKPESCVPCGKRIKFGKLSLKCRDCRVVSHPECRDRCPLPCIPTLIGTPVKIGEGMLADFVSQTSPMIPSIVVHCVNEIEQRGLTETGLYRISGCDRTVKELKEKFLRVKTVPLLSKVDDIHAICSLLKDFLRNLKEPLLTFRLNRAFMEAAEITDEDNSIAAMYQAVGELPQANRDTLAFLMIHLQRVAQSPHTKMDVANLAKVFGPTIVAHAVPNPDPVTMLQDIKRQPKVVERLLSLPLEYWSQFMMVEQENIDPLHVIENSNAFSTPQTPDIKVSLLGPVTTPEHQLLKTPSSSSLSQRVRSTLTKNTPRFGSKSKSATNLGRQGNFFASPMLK

[3] = biological target: T2, Alkaline phosphatase, tissue-nonspecific isozyme (Homo sapiens, UniProt P05186); assay: human TNAP enzyme inhibitors, SAR follow-up, biochemical, luminescent, dose response (AID 1056)
T2 sequence (P05186 whole entry): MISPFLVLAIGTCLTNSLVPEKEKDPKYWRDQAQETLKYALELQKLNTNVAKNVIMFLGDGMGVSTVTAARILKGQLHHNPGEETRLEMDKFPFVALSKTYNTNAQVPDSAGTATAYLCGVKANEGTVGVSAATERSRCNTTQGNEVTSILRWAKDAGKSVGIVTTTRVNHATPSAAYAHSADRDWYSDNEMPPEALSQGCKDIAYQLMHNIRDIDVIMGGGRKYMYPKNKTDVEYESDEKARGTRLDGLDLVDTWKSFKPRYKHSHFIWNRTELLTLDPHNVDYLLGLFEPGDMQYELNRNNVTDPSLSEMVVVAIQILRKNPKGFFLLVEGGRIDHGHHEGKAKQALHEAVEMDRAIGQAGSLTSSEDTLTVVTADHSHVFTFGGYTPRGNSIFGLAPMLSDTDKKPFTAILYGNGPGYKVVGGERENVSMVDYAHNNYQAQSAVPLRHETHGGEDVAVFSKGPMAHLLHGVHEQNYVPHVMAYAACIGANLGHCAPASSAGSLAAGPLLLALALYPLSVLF

[4] = biological target: Alkaline phosphatase, placental type (Homo sapiens, UniProt P05187); assay: PLAP enzyme inhibitors, confirmation, biochemical, luminescence (AID 1512); assay type: functional
Chain of Alkaline phosphatase, placental type (P05187 whole entry): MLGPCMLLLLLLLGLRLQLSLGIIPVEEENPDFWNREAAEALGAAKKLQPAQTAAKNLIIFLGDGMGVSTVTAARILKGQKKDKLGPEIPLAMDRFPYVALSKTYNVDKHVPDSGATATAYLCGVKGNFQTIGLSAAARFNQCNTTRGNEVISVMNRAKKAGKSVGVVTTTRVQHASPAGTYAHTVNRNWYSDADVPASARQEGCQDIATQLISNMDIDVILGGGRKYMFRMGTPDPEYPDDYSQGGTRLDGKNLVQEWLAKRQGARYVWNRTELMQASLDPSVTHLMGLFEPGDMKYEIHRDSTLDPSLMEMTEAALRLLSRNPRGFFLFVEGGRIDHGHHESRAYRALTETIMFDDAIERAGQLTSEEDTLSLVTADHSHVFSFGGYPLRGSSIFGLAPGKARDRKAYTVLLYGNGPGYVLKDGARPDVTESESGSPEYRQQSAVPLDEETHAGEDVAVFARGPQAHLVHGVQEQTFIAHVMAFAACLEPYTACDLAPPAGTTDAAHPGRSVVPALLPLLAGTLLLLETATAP

Cytochrome P450 1A2 [5] = biological target: T3, Cytochrome P450 1A2 (Homo sapiens, UniProt P05177);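 note: PubChem cytochrome P450 panel assay, CYP1A2 panel member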
T3 sequence (P05177 whole entry): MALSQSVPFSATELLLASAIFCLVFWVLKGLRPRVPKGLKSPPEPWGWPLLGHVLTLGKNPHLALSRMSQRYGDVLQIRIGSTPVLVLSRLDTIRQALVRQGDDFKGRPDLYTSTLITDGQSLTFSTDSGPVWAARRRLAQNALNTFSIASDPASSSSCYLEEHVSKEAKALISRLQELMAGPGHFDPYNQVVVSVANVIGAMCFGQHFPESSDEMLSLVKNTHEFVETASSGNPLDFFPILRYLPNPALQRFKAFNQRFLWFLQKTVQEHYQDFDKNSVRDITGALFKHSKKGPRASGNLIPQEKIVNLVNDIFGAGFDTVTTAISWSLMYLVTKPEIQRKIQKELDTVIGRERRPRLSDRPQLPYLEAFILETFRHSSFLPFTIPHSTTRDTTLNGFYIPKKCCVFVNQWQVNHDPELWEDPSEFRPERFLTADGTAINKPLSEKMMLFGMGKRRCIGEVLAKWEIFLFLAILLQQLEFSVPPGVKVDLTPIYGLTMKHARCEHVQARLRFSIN

Cytochrome P450 1A2 [6] = biological target: T3, Cytochrome P450 1A2; remark: listed apart in the source

Chain of SUMO E1/E2 (Q9UBE0 whole entry): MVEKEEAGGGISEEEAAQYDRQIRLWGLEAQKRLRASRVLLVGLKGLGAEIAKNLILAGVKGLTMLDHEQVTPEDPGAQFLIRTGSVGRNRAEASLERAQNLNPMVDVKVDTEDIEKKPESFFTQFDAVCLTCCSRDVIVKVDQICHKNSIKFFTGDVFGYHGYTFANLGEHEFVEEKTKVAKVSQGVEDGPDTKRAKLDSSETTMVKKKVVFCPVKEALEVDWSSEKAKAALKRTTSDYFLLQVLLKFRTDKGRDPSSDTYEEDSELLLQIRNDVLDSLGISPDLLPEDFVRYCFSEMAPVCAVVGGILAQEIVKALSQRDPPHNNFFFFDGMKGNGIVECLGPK
Chain of SUMO E1/E2 (Q9UBT2 whole entry): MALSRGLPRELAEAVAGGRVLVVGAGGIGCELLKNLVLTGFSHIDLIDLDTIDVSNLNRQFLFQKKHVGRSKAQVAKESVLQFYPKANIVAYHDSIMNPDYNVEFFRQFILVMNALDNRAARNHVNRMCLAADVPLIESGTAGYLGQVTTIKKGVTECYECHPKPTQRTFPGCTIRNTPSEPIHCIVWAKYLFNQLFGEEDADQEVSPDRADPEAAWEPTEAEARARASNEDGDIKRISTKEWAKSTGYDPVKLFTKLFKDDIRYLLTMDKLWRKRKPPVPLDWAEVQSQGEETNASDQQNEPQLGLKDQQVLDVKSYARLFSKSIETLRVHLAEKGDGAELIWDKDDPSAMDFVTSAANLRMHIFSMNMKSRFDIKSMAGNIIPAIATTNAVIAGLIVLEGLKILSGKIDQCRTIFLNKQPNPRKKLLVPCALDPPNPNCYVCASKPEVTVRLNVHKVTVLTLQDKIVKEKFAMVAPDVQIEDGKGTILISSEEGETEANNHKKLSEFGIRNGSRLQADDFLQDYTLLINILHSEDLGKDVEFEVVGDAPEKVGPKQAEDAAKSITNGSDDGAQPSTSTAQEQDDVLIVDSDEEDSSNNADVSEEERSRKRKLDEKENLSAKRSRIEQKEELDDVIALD
Chain of SUMO E1/E2 (P63279 whole entry): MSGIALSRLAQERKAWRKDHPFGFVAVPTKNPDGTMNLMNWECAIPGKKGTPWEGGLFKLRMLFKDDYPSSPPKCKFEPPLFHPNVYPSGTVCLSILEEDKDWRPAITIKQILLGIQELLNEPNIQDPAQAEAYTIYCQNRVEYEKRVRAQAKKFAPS

IC50 (SUMO E1/E2): > 100 µM (inactive)
Compound: COC(=O)c1ccc2c(c1)C1C=CCC1C(c1ccc(C(=O)O)cc1)N2 (configuration not stated)

EC50 [1]: 18.8 µM (inactive)
Compound: COc1ccc(Cn2c(SCc3ccc(Cl)c(C(F)(F)F)c3)nnc2-c2ccccn2)cc1

IC50 [2]: 79.5 µM (active) | IC50 [3]: 20.7 µM (active) | IC50 [4]: 6.62 µM (active)
Compound: C=CCn1c(SCC(=O)c2ccc(O)c(O)c2)nnc1-c1cccc(Cl)c1

Compound: c1cncc([C@@H]2CCCCN2)c1 [ANABASINE]
AC50 (Cytochrome P450 1A2 [5]): 5.01 µM (inconclusive) | AC50 (Cytochrome P450 1A2 [6]): inconclusive
